This note sets out measurements from PubChem BioAssay AID1224902.

The subject of this experiment is PC3 prostate cancer viability, PrestoBlue fluorescence. Description: growth inhibition of PC3 cells, dose response, mTOR inhibitor project (AID 1224902).

In the case of `CCOC(Cn1nc(-c2ccc3oc(N)nc3c2)c2c(N)ncnc21)OCC`, the 50% effective concentration (EC50) was 37 nM.

What is called EC50 is the concentration that produces a half-maximal response.
